Assay results taken from article PMC4604475 (Scientific Reports, 2015).

Tests used:
[1] = Blood pharmacokinetics after oral (intragastric) administration to rats; assay type: in vivo; details: rat, oral 88 μmol/kg
Description: Derivatives 2–5 were then tested for their in vivo absorption and metabolism by performing pharmacokinetic studies after oral administration to rats. Each compound was administered as a single intragastric bolus, in an equimolar dose/kg body weight (88 μmol/kg). Blood samples were taken at different time points over a 24 h period, treated and analyzed as described in the Materials and Methods section. Each experiment was replicated at least 3 times.
(§1) Before starting the treatment, 4,4′-dihydroxybiphenyl was added as internal standard to a carefully measured blood volume (25 μM final concentration). 0.1 vol of 0.6 M TEA (pH 8.0) and 4 vol of MeOH were then added to the blood samples, which were then sonicated (2 min) and centrifuged (12,000 g, 7 min, 4 °C). The supernatant was finally collected and stored at −20 °C. Before analysis, MeOH was evaporated off at room temperature using a Univapo 150H (UniEquip) vacuum concentrator centrifuge, and up to 40 μL of ACN were added to precipitate residual proteins. After centrifugation (12,000 g, 5 min, 4 °C), cleared samples were directly subjected to HPLC-UV analysis. Metabolites and hydrolysis products were identified by comparison of chromatographic retention time with true samples or by HPLC/ESI-MS analysis.
Internal standard recovery from the treatment used to extract resveratrol-AA derivatives was 91.8 ± 10.7%. The recovery of 3, expressed as ratio to the recovery of internal standard, was 0.633 ± 0.088. […] Knowledge/assumption of these ratios allowed us to determine the unknown amount of analyte in a blood sample by measuring the recovery of internal standard.
Since sample treatment includes an evaporation/concentration step, LOD and LOQ were determined relatively to the analytical part of the method (HPLC/UV analysis).
Derivatives 2–5 were administered to overnight-fasted male Wistar rats from the facility of the Department of Biomedical Sciences, University of Padova, as a single intragastric dose (88 μmol/Kg, dissolved in 250 μl DMSO). Blood samples were obtained by the tail bleeding technique: before drug administration, rats were anesthetised with isoflurane and the tip of the tail was cut off; blood samples (80–100 μL each) were then taken from the tail tip at different time points after drug administration. Blood was collected in heparinised tubes, kept in ice and treated as described above within 10 min.

[2] = Hydrolysis kinetics in aqueous PBS 0.1 M, pH 6.8, 37 °C (intestinal conditions); assay type: physicochemical; details: for half-life at 5 μM: 0.1 M PBS buffer, 5 μM compound; for 10^2 * kII, pseudo first-order rate constant, disubstituted to monosubstituted / 10^2 * kIII, pseudo first-order rate constant, trisubstituted to disubstituted: value ± standard error of fit
Description: (§2) There are two possible isomeric disubstituted intermediates and, likewise, two monosubstituted intermediates. By HPLC-UV and HPLC-MS analyses in most cases we were able to detect and separate all of them. However, to simplify the kinetic analysis of the data we considered each pair of isomeric intermediates, resulting from the first and second hydrolysis steps, as a single species, i.e. the two disubstituted and the two monosubstituted intermediates were handled as species II and I, respectively (Fig. 3). Fitting of the experimental data was then performed considering consecutive pseudo first order reactions and using a set of equations analogous to those described by Kozerski et al.[55]
The stability of all new compounds was tested in aqueous media imitating gastric (0.1 N HCl, NormaFix) and intestinal (0.1 M PBS buffer, pH 6.8) conditions. A 5 μM solution of the compound was prepared from a 5 mM stock solution in DMSO, and incubated at 37 °C for 24 hours; samples withdrawn at different times were analysed by HPLC-UV. Hydrolysis products were identified by HPLC/ESI-MS analysis of selected samples. Non-linear curve fitting was performed using Origin 8.0 data analysis software, using the equations described in[55][61].

[3] = Stability (hydrolysis kinetics) in rat whole blood; assay type: in vitro ADME; details: 37 °C; for kIII, pseudo first-order rate constant, trisubstituted to disubstituted: value ± standard error of fit; for half-life at 5 μM: whole blood (heparinised), 5 μM compound
Description: as §2
Rats were anesthetised and blood was withdrawn from the jugular vein, and transferred into tubes containing heparin. Blood samples (1 mL) were spiked with 5 μM compound (dilution from a 5 mM stock solution in DMSO), and incubated at 37 °C for 4 hours (the maximum period allowed by blood stability). Aliquots were taken after 10 min, 30 min, 1 h, 2 h and 4 h and treated as described below (blood sample treatment and analysis). Cleared blood samples were finally subjected to HPLC-UV analysis.
as §1

[4] = oral administration of an equimolar amount of resveratrol itself; cited from earlier work

SMILES | appearance in blood of resveratrol, products of partial hydrolysis (II and I) or any metabolites [1] | half-life at 5 μM [2] | 10^2 * kII, pseudo first-order rate constant, disubstituted to monosubstituted [2] | 10^2 * kIII, pseudo first-order rate constant, trisubstituted to disubstituted [2] | kIII, pseudo first-order rate constant, trisubstituted to disubstituted [3] | half-life at 5 μM [3] | level of disubstituted hydrolysis products (II) in blood [1] | sulfated or glucuronidated species in the bloodstream [1] | concentration of prodrug in blood ([1]; about one hour after administration, remained around this level for several hours) | time of peak blood concentration of resveratrol [4]
CC(O)C(NC(=O)Oc1ccc(/C=C/c2cc(OC(=O)NC(C(=O)O)C(C)O)cc(OC(=O)NC(C(=O)O)C(C)O)c2)cc1)C(=O)O (centres unmarked) [Derivative 4, (E)-2,2′-((((5-(4-(((1-carboxy-2-hydroxypropyl)carbamoyl)oxy)styryl)-1,3-phenylene)bis(oxy))bis(carbonyl))bis(azanediyl))bis(3-hydroxybutanoic acid)] | did not result in the appearance in blood samples of detectable amounts | 15 h | 1.4 ± 0.1 h^−1 | 5.30 ± 0.08 h^−1 | 3.9 ± 0.2 h⁻¹ | 0.17 h |  |  |  | 
CCC(C)C(NC(=O)Oc1ccc(/C=C/c2cc(OC(=O)NC(C(=O)O)C(C)CC)cc(OC(=O)NC(C(=O)O)C(C)CC)c2)cc1)C(=O)O (centres unmarked) [Derivative 3, (E)-2,2′-((((5-(4-(((1-carboxy-2-methylbutyl)carbamoyl)oxy)styryl)-1,3-phenylene)bis(oxy))bis(carbonyl))bis(azanediyl))bis(3-methylpentanoic acid)] |  | > 24 h | 0.4 ± 0.4 h^−1 | 2.21 ± 0.02 h^−1 | 0.63 ± 0.04 h⁻¹ | 1 h | about as high as that of their precursor | neither sulfated nor glucuronidated species appeared in the bloodstream | higher than 0.5 μM | 
O=C(NC(Cc1ccccc1)C(=O)O)Oc1ccc(/C=C/c2cc(OC(=O)NC(Cc3ccccc3)C(=O)O)cc(OC(=O)NC(Cc3ccccc3)C(=O)O)c2)cc1 (centres unmarked) [Derivative 5, (E)-2,2′-((((5-(4-(((1-carboxy-2-phenylethyl)carbamoyl)oxy)styryl)-1,3-phenylene)bis(oxy))bis(carbonyl))bis(azanediyl))bis(3-phenylpropanoic acid)] | did not result in the appearance in blood samples of detectable amounts | 17 h | 1.36 ± 0.04 h^−1 | 4.25 ± 0.02 h^−1 | 1.86 ± 0.06 h⁻¹ | 0.3 h |  |  |  | 
CC(C)CC(NC(=O)Oc1ccc(/C=C/c2cc(OC(=O)NC(CC(C)C)C(=O)O)cc(OC(=O)NC(CC(C)C)C(=O)O)c2)cc1)C(=O)O (centres unmarked) [Derivative 2, (E)-2,2′-((((5-(4-(((1-carboxy-3-methylbutyl)carbamoyl)oxy)styryl)-1,3-phenylene)bis(oxy))bis(carbonyl))bis(azanediyl))bis(4-methylpentanoic acid)] |  | > 24 h | 0.9 ± 0.2 h^−1 | 1.98 ± 0.03 h^−1 | 0.57 ± 0.06 h⁻¹ | 1 h |  |  |  | 
Oc1ccc(/C=C/c2cc(O)cc(O)c2)cc1 [resveratrol, 3,5, 4′-trihydroxy-trans-stilbene] |  |  |  |  |  |  |  |  |  | about 10 minutes
